Assay results reported in US9676773B2, “Azaindole derivative” (TAIHO PHARMACEUTICAL CO., LTD., priority 2014, dated 2017).

Columns and labels:
[1] = system: human PBMC; assay: IL-2-dependent growth of human peripheral blood mononuclear cells (PBMC); assay type: cell-based; settings: PHA-M pre-culture 3 days, IL-2 2 ng/mL, 2 days, CellTiter-Glo, read-out: PSMC IC50
Protocol: The activity of the compound of the present invention to inhibit the IL-2-dependent growth reaction of human PBMC, which is caused by JAK3, was measured (Arthritis Rheum. 2010; 62(8): 2283-93).
With a medium containing 10 μg/mL PHA-M (Sigma) (which is RPI-1640 (Sigma) containing 10% human serum type AB (MP Biomedicals)), human PBMC (C.T.L.) (cell density: 1×10^6 cells/mL) was cultured at 37° C. in a culture vessel containing 5% carbon dioxide for 3 days. Thereafter, the culture was washed with RPMI-1640 four times, and a medium (RPMI-1640 containing 10% human serum type AB) was then added to the resultant culture to prepare a cell suspension. The cells (1×10^4 cells per well) and the serially diluted compound of the present invention were added to each well of a 96-well U-bottom microplate, and thus obtained mixture was then cultured at 37° C. in a culture vessel containing 5% carbon dioxide for 30 minutes. After completion of the culture, recombinant human IL-2 (Peprotech) was added to the culture to a final concentration of 2 ng/mL, and the obtained mixture was then stirred at 37° C. in a culture vessel containing 5% carbon dioxide for 2 days (1×10^4 cells/100 μl/each well). After completion of the culture, the resultant was left at a room temperature for 30 minutes, and 100 μl of CellTiter-Glo Luminescent Cell Viability Assay (Promega) was then added to the resultant, followed by stirring it. Thereafter, the reaction mixture was left for 10 minutes, and the amount of a luminescence derived from living cells in each well was then measured with a microplate reader (TECAN). The inhibition rate of the compound to the cell growth caused by IL-2 stimulation was calculated, and the concentration of the compound capable of inhibiting 50% of the cell growth was defined as an […] value (nM).

[2] = biological target: T1, purified recombinant human JAK3 protein (Homo sapiens, UniProt P52333); assay: Measurement of JAK3 kinase-inhibitory activity; assay type: biochemical; settings: substrate peptide 1 μM, ATP 5 μM, 25° C., 80 minutes
T1 construct: purchased Carna Biosciences, Inc
T1 sequence (P52333 1-1124): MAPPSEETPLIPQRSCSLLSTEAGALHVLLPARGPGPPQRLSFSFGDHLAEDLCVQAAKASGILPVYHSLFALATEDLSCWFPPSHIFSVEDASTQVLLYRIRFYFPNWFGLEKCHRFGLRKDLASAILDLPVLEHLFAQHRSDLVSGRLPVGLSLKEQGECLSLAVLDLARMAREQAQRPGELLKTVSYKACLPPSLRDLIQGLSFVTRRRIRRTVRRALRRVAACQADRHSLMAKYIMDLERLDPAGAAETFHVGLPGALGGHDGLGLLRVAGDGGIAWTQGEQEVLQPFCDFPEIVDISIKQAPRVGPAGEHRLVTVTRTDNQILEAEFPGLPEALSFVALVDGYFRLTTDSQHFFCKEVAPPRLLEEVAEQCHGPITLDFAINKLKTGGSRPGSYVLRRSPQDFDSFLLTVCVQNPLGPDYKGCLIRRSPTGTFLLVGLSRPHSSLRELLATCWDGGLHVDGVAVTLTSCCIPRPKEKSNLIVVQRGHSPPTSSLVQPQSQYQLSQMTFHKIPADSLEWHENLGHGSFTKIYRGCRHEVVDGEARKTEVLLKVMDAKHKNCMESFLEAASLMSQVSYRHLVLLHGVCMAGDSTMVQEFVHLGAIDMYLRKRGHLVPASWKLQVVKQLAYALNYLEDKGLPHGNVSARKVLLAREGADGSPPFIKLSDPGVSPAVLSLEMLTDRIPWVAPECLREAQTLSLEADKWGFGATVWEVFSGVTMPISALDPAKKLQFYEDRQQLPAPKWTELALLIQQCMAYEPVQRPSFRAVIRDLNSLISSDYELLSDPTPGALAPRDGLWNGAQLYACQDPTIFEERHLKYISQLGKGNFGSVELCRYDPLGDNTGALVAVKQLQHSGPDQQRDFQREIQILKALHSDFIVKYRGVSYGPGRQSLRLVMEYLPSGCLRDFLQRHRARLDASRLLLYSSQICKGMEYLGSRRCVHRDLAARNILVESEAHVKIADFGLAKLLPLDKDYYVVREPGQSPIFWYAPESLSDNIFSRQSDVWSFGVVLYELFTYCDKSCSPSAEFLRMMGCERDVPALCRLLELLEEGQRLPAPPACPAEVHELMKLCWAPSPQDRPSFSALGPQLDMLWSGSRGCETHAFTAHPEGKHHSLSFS
Protocol: 3) Measurement of JAK3 Kinase-Inhibitory Activity
The activity of the compound of the present invention to inhibit the activity of JAK3 kinase was measured.
Among materials for the measurement of this inhibitory activity, a substrate peptide and a kinase protein were acquired as follows. As such a substrate peptide, a substrate peptide for QSS Assist™ JAK3-MSA assay kit (Carna Biosciences, Inc.) was purchased. As such a kinase protein, a purified recombinant human JAK3 protein (Carna Biosciences, Inc.) was purchased.
The method for measuring the inhibitory activity is as follows. First, a serial dilution of the compound of the present invention was prepared by the same method as that described in the above section regarding JAK1. This serial dilution solution (the final concentration of DMSO upon a kinase reaction: 5.0%) or DMSO (final concentration: 5.0%) was mixed with a solution containing the substrate peptide (final concentration: 1 μM), magnesium chloride (final concentration: 5 mM) and ATP (final concentration: 5 μM) in a buffer for kinase reaction (20 mM HEPES (pH 7.5), 2 mM dithiothreitol and 0.01% Triton X-100). Thereafter, a JAK3 protein was further added to the mixed solution, and the obtained mixture was then incubated at 25° C. for 80 minutes to carry out a kinase reaction. To the reaction solution, EDTA was added to a final concentration of 30 mM, so as to terminate the reaction. After termination of the reaction, the measurement and the data analysis were carried out by the same methods as those described in the above section regarding JAK1.

Row | IC50 [2] | SMILES | IC50 [1]
1 | 250 nM | C1=C(c2ccnc3[nH]ccc23)CCCC1 [Comparative Example 1, reference compound] | > 3000 nM
2 | 350 nM | C1=C(c2ccnc3[nH]ccc23)CCC1 [Comparative Example 2, 4-(Cyclopent-1-en-1-yl)-1H-pyrrolo[2,3-b]pyridine, reference compound] | > 3000 nM
3 | 460 nM | Cc1nc(-c2c[nH]c3ncc(-c4ccccc4)cc23)cs1 [Comparative Example 3, 2-Methyl-4-(5-phenyl-1H-pyrrolo[2,3-b]pyridin-3-yl)thiazole, reference compound] | > 3000 nM
4 | < 0.3 nM | C=CC(=O)NC1CCC=C(c2ccnc3[nH]cc(-c4ccccc4)c23)C1 (stereo not drawn) [Compound 1, N-(3-(3-Phenyl-1H-pyrrolo[2,3-b]pyridin-4-yl)cyclohex-3-en-1-yl)acrylamide] | 216 nM
5 | < 0.3 nM | C=CC(=O)NC1CCC=C(c2ccnc3[nH]cc(-c4cn[nH]c4)c23)C1 (stereo not drawn) [Compound 3, N-(3-(3-(1H-Pyrazol-4-yl)-1H-pyrrolo[2,3-b]pyridin-4-yl)cyclohex-3-en-1-yl)acrylamide] | 182 nM
6 | 0.42 nM | C=CC(=O)NC1CCC=C(c2ccnc3[nH]cc(-c4cccnc4OC)c23)C1 (stereo not drawn) [Compound 6, N-(3-(3-(2-Methoxypyridin-3-yl)-1H-pyrrolo[2,3-b]pyridin-4-yl)cyclohex-3-en-1-yl)acrylamide] | 181 nM
7 | < 0.3 nM | C=CC(=O)NC1CCC=C(c2ccnc3[nH]cc(-c4ccc(CO)o4)c23)C1 (stereo not drawn) [Compound 10, N-(3-(3-(5-(Hydroxymethyl)furan-2-yl)-1H-pyrrolo[2,3-b]pyridin-4-yl)cyclohex-3-en-1-yl)acrylamide] | 136 nM
8 | < 0.3 nM | C=CC(=O)NC1CCC=C(c2ccnc3[nH]cc(-c4ccco4)c23)C1 (stereo not drawn) [Compound 12, N-(3-(3-(Furan-2-yl)-1H-pyrrolo[2,3-b]pyridin-4-yl)cyclohex-3-en-1-yl)acrylamide] | 123 nM
9 | < 0.3 nM | C=CC(=O)NC1CCC=C(c2ccnc3[nH]cc(-c4cc(CO)co4)c23)C1 (stereo not drawn) [Compound 14, N-(3-(3-(4-(Hydroxymethyl)furan-2-yl)-1H-pyrrolo[2,3-b]pyridin-4-yl)cyclohex-3-en-1-yl)acrylamide] | 114 nM
10 | < 0.3 nM | C=CC(=O)NC1CCC=C(c2ccnc3[nH]cc(C4=CCOC4)c23)C1 (stereo not drawn) [Compound 34, N-(3-(3-(2,5-Dihydrofuran-3-yl)-1H-pyrrolo[2,3-b]pyridin-4-yl)cyclohex-3-en-1-yl)acrylamide] | 82 nM
11 | < 0.3 nM | C=CC(=O)NC1CCC=C(c2ccnc3[nH]cc(-c4ccc(F)nc4)c23)C1 (stereo not drawn) [Compound 37, N-(3-(3-(6-Fluoropyridin-3-yl)-1H-pyrrolo[2,3-b]pyridin-4-yl)cyclohex-3-en-1-yl)acrylamide] | 159 nM
12 | < 0.3 nM | C=CC(=O)NC1CCC=C(c2ccnc3[nH]cc(-c4cnco4)c23)C1 (stereo not drawn) [Compound 48, N-(3-(3-(Oxazol-5-yl)-1H-pyrrolo[2,3-b]pyridin-4-yl)cyclohex-3-en-1-yl)acrylamide] | 114 nM
13 | < 0.3 nM | C=CC(=O)NC1CCC=C(c2ccnc3[nH]cc(-c4nnco4)c23)C1 (stereo not drawn) [Compound 49, N-(3-(3-(1,3,4-Oxadiazol-2-yl)-1H-pyrrolo[2,3-b]pyridin-4-yl)cyclohex-3-en-1-yl)acrylamide] | 122 nM
14 | < 0.3 nM | C=CC(=O)NC1CCC=C(c2ccnc3[nH]cc(-c4nn(C)c(=O)o4)c23)C1 (stereo not drawn) [Compound 53, N-(3-(3-(4-Methyl-5-oxo-4,5-dihydro-1,3,4-oxadiazol-2-yl)-1H-pyrrolo[2,3-b]pyridin-4-yl)cyclohex-3-en-1-yl)acrylamide] | 162 nM
15 | 0.45 nM | C=CC(=O)NC1CCC=C(c2ccnc3[nH]cc(-c4nncs4)c23)C1 (stereo not drawn) [Compound 54] | 170 nM
16 | < 0.3 nM | C=CC(=O)N[C@H]1CCC=C(c2ccnc3[nH]cc(-c4nnco4)c23)C1 [Compound 55, (S)—N-(3-(3-(1,3,4-Oxadiazol-2-yl)-1H-pyrrolo[2,3-b]pyridin-4-yl)cyclohex-3-en-1-yl)acrylamide] | 34 nM
17 | 0.57 nM | C=CC(=O)NC1CC=C(c2ccnc3[nH]cc(-c4nnco4)c23)C1 (stereo not drawn) [Compound 57, N-(3-(3-(1,3,4-Oxadiazol-2-yl)-1H-pyrrolo[2,3-b]pyridin-4-yl)cyclopent-3-en-1-yl)acrylamide] | 304 nM
18 | < 0.3 nM | C=CC(=O)N[C@H]1CCC=C(c2ccnc3[nH]cc(-c4ccno4)c23)C1 [Compound 59] | 55 nM
